Data reported in PMC10056636, “3-Amino-Substituted Analogues of Fusidic Acid as Membrane-Active Antibacterial Compounds” (Membranes, 2023).
≈ marks a conversion by molar mass, not a printed value. Read-outs that look alike come from different tables or passages of the source.

Key:
[1] = tested on: Staphylococcus aureus (ATCC 43300) (MRSA); experiment: Antibacterial whole-cell growth inhibition (MIC, CO-ADD); format: cell-based; conditions: for primary screening: antimicrobial activity: S. aureus (MRSA), primary screen at 32 μg/mL
Protocol: (§1) Antibacterial screening was carried out by the serial dilution method. All bacteria were cultured in the cation-adjusted Mueller Hinton broth (CAMHB) at 37 °C overnight. A sample of each culture was then diluted 40-fold in fresh broth and incubated at 37 °C for 1.5–3 h. The resultant mid-log phase cultures were diluted (CFU/mL measured by OD600) and then added into each well containing a test compound, giving a cell density of 5 × 10^5 CFU/mL and a total volume of 50 µL. All the plates were covered and incubated at 37 °C for 18 h without shaking.
(§2) Inhibition of bacterial growth was determined by measuring the absorbance at 600 nm (OD600) with a Tecan M1000 Pro monochromator plate reader. […]

[2] = in vitro; format: cell-based, human; conditions: human, CC50
Protocol: (§3) HEK293 cells were counted manually in a Neubauer hemocytometer and then plated in 384-well plates containing the test compounds to give a density of 5000 cells per well in a final volume of 50 µL. DMEM supplemented with 10% FBS was used as the growth medium, and the cells were incubated together with the compounds for 20 h at 37 °C in 5% CO2.
(§4) The cytotoxicity (or cell viability) was measured by fluorescence, ex: 560/10 nm, em: 590/10 nm (F560/590), after addition of 5 µL of 25 µg/mL resazurin (2.3 µg/mL final concentration) and after incubation for further 3 h at 37 °C in 5% CO2. The fluorescence intensity was measured using a Tecan M1000 Pro monochromator plate reader with automatic gain control. The CC50 (50% cytotoxicity concentration) values were calculated by curve fitting of inhibition vs. log(concentration) using a sigmoidal dose–response function, with variable fitting values for bottom, top, and slope. In addition, the maximal percentage of cytotoxicity is reported as DMax, indicating any compounds with partial cytotoxicity. The curve fitting was implemented using Pipeline Pilot’s dose–response component. The results were similar to those obtained by other curve-fitting tools, such as GraphPad’s Prism and IDBS’s XlFit. Any value with > indicated samples with no activity (low DMax value) or samples with CC50 values above the maximum tested concentration (higher DMax value).
(§5) In addition, samples were flagged as partially cytotoxic if DMax ≥ 50%, even for CC50 > the maximum tested concentration.
(§6) Tamoxifen served as a positive cytotoxicity standard. Melittin was used as a positive hemolytic standard.

[3] = tested on: human embryonic kidney cell line HEK293 (ATCC CRL-1573); experiment: in vitro; format: cell-based; conditions: for CC50: human, 20 h
Protocol: as §3, §4, §5, §6

[4] = tested on: human red blood cells; experiment: Hemolysis assay; format: cell-based; conditions: human, 1 h
Protocol: (§7) Human whole blood was washed three times with 3 volumes of 0.9% NaCl and then resuspended in the same medium to a concentration of 0.5 × 10^8 cells/mL, as determined by manual cell count in a Neubauer hemocytometer. The washed cells were then added to 384-well plates containing the test compounds to a final volume of 50 µL. After shaking on a plate shaker for 10 min, the plates were incubated for 1 h at 37 °C. After incubation, the plates were centrifuged at 1000× g for 10 min to pellet the cells and debris; 25 µL of the supernatant was then transferred to a polystyrene 384-well assay plate.
(§8) Hemolysis was monitored by measuring the supernatant absorbance at […] (OD405). The absorbance was measured using a Tecan M1000 Pro monochromator plate reader. HC10 and HC50 (10% and 50% hemolysis concentrations, respectively) were calculated by curve fitting of inhibition vs. log(concentration) using a sigmoidal dose–response function with variable fitting values for top, bottom, and slope. In addition, the maximal percentage of hemolysis is reported as DMax, indicating any compounds with partial hemolysis. The curve fitting was implemented using Pipeline Pilot’s dose–response component. […] Any value with > indicated sample with no activity (low DMax value) or samples with HC10 values above the maximum tested concentration (higher DMax value).
(§9) In addition, samples were flagged as partially hemolytic if DMax ≥ 50%, even for HC10 > the maximum tested concentration. […]

[5] = Hemolysis assay; format: cell-based, human; conditions: for hemolysis at 1 h: human, Dmax (maximal percentage of hemolysis)
Protocol: as §7, §8, §9

[6] = tested on: Cryptococcus neoformans (ATCC 208821); experiment: Antifungal growth inhibition (MIC, CO-ADD); conditions: for MIC: inhibition ≥70%, two replicates per cell; for primary screening: growth inhibition: primary screen at 32 μg/mL
Protocol: Antimicrobial, cytotoxicity, and hemolytic activity screening of the synthesized derivatives was carried out in the CO-ADD (The Community for Antimicrobial Drug Discovery) (http://www.co-add.org, accessed on 24 November 2020) and included analysis for antibacterial properties, cytotoxicity, and hemolytic activity.
The hit confirmation test included five bacteria, Escherichia coli (ATCC 25922), Klebsiella pneumoniae (ATCC 700603), Acinetobacter baumannii (ATCC 19606), Pseudomonas aeruginosa (ATCC 27853), and Staphylococcus aureus (ATCC 43300), and two fungi, Candida albicans (ATCC 90028) and Cryptococcus neoformans (ATCC 208821). […] The compounds were also screened for hemolysis of human red blood cells (human whole blood, strain ARCBS 5400 00150).
Samples were prepared in DMSO and water to a final testing concentration of 32 µg/mL or 20 µM (unless otherwise indicated in the data sheet) and serially diluted twofold up to 8 times. Each sample concentration was prepared in 384-well plates: non-binding surface plate (NBS; Corning 3640) for each bacterial/fungal strain, tissue-culture treated (TC-treated; Corning 3712/3764) black for mammalian cell types and polypropylene 384-well plates (PP; Corning 3657) for hemolysis assays. The final DMSO concentration was maintained to a maximum of 0.5%. All sample preparation procedures were performed using liquid-handling robots. All screening was performed as two replica (n = 2), with both replicas on different assay plates, but from single plating and performed in a single screening experiment (microbial incubation). In addition, two values are used as quality controls for individual plates: Z′-Factor [1 − (3* (sd(NegCtrl) + sd(PosCtrl))/(average(PosCtrl)-average(NegCtrl)))] and standard antibiotic controls at different concentrations (>MIC and <MIC).
Fungi strains were cultured for 3 days on yeast extract-peptone dextrose (YPD) agar at 30 °C. A yeast suspension of 1 × 10^6 to 5 × 10^6 CFU/mL (as determined by OD530) was prepared from five colonies. The suspension was subsequently diluted and added to each well containing a test compound, giving a final cell density of fungi suspension of 2.5 × 10^3 CFU/mL and a total volume of 50 µL. All plates were covered and incubated at 35 °C for 36 h without shaking.
The absorbance was measured using a Biotek Multiflo Synergy HTX plate reader. In both cases, the percentage of growth inhibition was calculated for each well, using the negative control (media only) and positive control (fungi without inhibitors) in the same plate. […] In addition, the maximal percentage of growth inhibition is reported as DMax, indicating any compounds with marginal activity.
Fluconazole was used as a positive fungal inhibitor standard for C. albicans and C. neoformans. […] The quality control (QC) of the assays was performed using Z′-factors calculated from the negative (media only) and positive controls (bacterial, fungal, or cell culture without inhibitor) and the standards.

[7] = tested on: Escherichia coli (ATCC 25922); experiment: Antibacterial whole-cell growth inhibition (MIC, CO-ADD); format: cell-based; conditions: E. coli, two replicates per cell
Protocol: as §1, §2

[8] = tested on: Pseudomonas aeruginosa (ATCC 27853); experiment: as above; format: cell-based; conditions: P. aeruginosa, two replicates per cell
Protocol: as §1, §2

[9] = tested on: Acinetobacter baumannii (ATCC 19606); experiment: as above; format: cell-based; conditions: A. baumannii, two replicates per cell
Protocol: as §1, §2

[10] = tested on: Candida albicans (ATCC 90028); experiment: Antifungal growth inhibition (MIC, CO-ADD); format: cell-based
[11] = Staphylococcus aureus, S. aureus (MRSA) ATCC 43300, inhibition ≥80%, two replicates (n = 2), read-out: MIC
[12] = S. aureus (MRSA) ATCC 43300, inhibition ≥80%, two replicates (n = 2)
[13] = Cryptococcus neoformans, ATCC208821, C. neoformans
[14] = Escherichia coli, ATCC25922, read-out: MIC
[15] = Pseudomonas aeruginosa, ATCC27853, read-out: MIC
[16] = Acinetobacter baumannii, ATCC19606, read-out: MIC
[17] = C. albicans, inhibition ≥80%, two replicates per cell
[18] = Candida albicans, ATCC90028, C. albicans, inhibition ≥80%, two replicates per cell, read-out: MIC

Compound	primary screening: antimicrobial activity [1]	MIC [1, 11]	CC50 at 20 h [2]	CC50 [3]	Dmax (maximal percentage of hemolysis) [4]	HC50 [4]	hemolysis at 1 h [5]	MIC [1, 12]	also measured
CC(=O)O[C@H]1C[C@@]2(C)[C@@H](CC(=O)[C@H]3[C@@]4(C)CC[C@H](NCc5ccccc5)[C@@H](C)[C@@H]4CC[C@@]32C)/C1=C(\CCC=C(C)C)C(=O)O [Compound 9]	showed antimicrobial activity	8 µg/mL (≈ 13.2 µM)	> 32 µg/mL	>32 >32 µg/mL	2.3%	>32 >32 µg/mL	3.7%	–	–
COC(=O)/C(CCC=C(C)C)=C1\[C@@H](OC(C)=O)C[C@@]2(C)[C@H]1C[C@@H](O)[C@H]1[C@@]3(C)CC[C@H](NCCN)[C@@H](C)[C@@H]3CC[C@@]12C [Compound 12]	showed antimicrobial activity	32 µg/mL (≈ 55.9 µM)	7.77 µg/mL (≈ 13.6 µM)	13.2 µg/mL (≈ 23 µM)	27.8%	>32 >32 µg/mL	34.8%	32 µg/mL (≈ 55.9 µM)	MIC ([6]; C. neoformans): 16 µg/mL (≈ 27.9 µM); primary screening: growth inhibition ([6]; C. neoformans): inhibited the growth; MIC [6, 13]: 16 µg/mL (≈ 27.9 µM)
CC(=O)O[C@H]1C[C@@]2(C)[C@@H](C[C@@H](O)[C@H]3[C@@]4(C)CC[C@H](NCCCNCCCCN)[C@@H](C)[C@@H]4CC[C@@]32C)/C1=C(\CCC=C(C)C)C(=O)O [Compound 19]	–	–	> 32 µg/mL	>32 >32 µg/mL	5.3%	>32 >32 µg/mL	5.5%	32 µg/mL (≈ 49.7 µM)	MIC [7]: >32 >32 µg/mL; MIC [7, 14]: > 32 µg/mL; MIC [8]: >32 >32 µg/mL; MIC [8, 15]: > 32 µg/mL; MIC [9]: >32 >32 µg/mL; MIC [9, 16]: > 32 µg/mL; MIC [10, 17]: >32 >32 µg/mL; MIC [10, 18]: > 32 µg/mL
Colistin [reference compound]	–	–	–	–	–	–	–	–	MIC [7]: 0.125 µg/mL; MIC [8]: 0.25 µg/mL; MIC [9]: 0.25 µg/mL
CN[C@H](CC(C)C)C(=O)N[C@H]1C(=O)N[C@@H](CC(N)=O)C(=O)N[C@H]2C(=O)N[C@H]3C(=O)N[C@H](C(=O)N[C@H](C(=O)O)c4cc(O)cc(O)c4-c4cc3ccc4O)[C@H](O)c3ccc(c(Cl)c3)Oc3cc2cc(c3O[C@@H]2O[C@H](CO)[C@@H](O)[C@H](O)[C@H]2O[C@H]2C[C@](C)(N)[C@H](O)[C@H](C)O2)Oc2ccc(cc2Cl)[C@H]1O [Vancomycin, reference compound]	–	–	–	–	–	–	–	–	MIC ([1]; Staphylococcus aureus): 1 µg/mL (≈ 0.69 µM)
OC(Cn1cncn1)(Cn1cncn1)c1ccc(F)cc1F [Fluconazole, reference compound]	–	–	–	–	–	–	–	–	MIC ([10]; Candida albicans, ATCC90028): 0.125 µg/mL (≈ 0.408 µM); MIC [6, 13]: 8 µg/mL (≈ 26.1 µM)
CC(=O)O[C@H]1C[C@@]2(C)[C@@H](CC(=O)[C@H]3[C@@]4(C)CCC(=O)[C@@H](C)[C@@H]4CC[C@@]32C)/C1=C(\CCC=C(C)C)C(=O)O [Compound 1]	showed antimicrobial activity	8 µg/mL (≈ 15.6 µM)	> 32 µg/mL	>32 >32 µg/mL	10.6%	>32 >32 µg/mL	7.3%	–	–
COC(=O)/C(CCC=C(C)C)=C1\[C@@H](OC(C)=O)C[C@@]2(C)[C@H]1C[C@@H](O)[C@H]1[C@@]3(C)CC[C@H](NCc4ccccc4)[C@@H](C)[C@@H]3CC[C@@]12C [Compound 18]	showed antimicrobial activity	16 µg/mL (≈ 25.8 µM)	17.8 µg/mL (≈ 28.7 µM)	17.5 µg/mL (≈ 28.2 µM)	–	>32 >32 µg/mL	–	16 µg/mL (≈ 25.8 µM)	MIC ([6]; C. neoformans): 32 µg/mL (≈ 51.6 µM); primary screening: growth inhibition ([6]; C. neoformans): inhibited the growth; MIC [6, 13]: 32 µg/mL (≈ 51.6 µM)
CCCCN[C@H]1CC[C@@]2(C)[C@@H](CC[C@@]3(C)[C@H]2[C@H](O)C[C@H]2/C(=C(\CCC=C(C)C)C(=O)OC)[C@@H](OC(C)=O)C[C@@]23C)[C@@H]1C [Compound 14]	showed antimicrobial activity	32 µg/mL (≈ 54.6 µM)	26 µg/mL (≈ 44.4 µM)	23.8 µg/mL (≈ 40.6 µM)	3.6%	>32 >32 µg/mL	3.4%	32 µg/mL (≈ 54.6 µM)	–
CC(=O)O[C@H]1C[C@@]2(C)[C@@H](C[C@@H](O)[C@H]3[C@@]4(C)CC[C@H](NCCCNCCCCNCCCN)[C@@H](C)[C@@H]4CC[C@@]32C)/C1=C(\CCC=C(C)C)C(=O)O [Compound 21]	–	2 to 8 µg/mL (≈ 2.85 to 11.4 µM)	24.2 µg/mL (≈ 34.5 µM)	> 32 µg/mL	6.4%	>32 >32 µg/mL	8.7%	–	MIC [7]: 32 µg/mL (≈ 45.6 µM); MIC [7, 14]: 32 µg/mL (≈ 45.6 µM); MIC [8]: 32 µg/mL (≈ 45.6 µM); MIC [8, 15]: 32 µg/mL (≈ 45.6 µM); MIC [9]: 32 µg/mL (≈ 45.6 µM); MIC [9, 16]: 32 µg/mL (≈ 45.6 µM); MIC [10, 17]: 32 µg/mL (≈ 45.6 µM); MIC [10, 18]: 32 µg/mL (≈ 45.6 µM)
CC/C(=C(\c1ccccc1)c1ccc(OCCN(C)C)cc1)c1ccccc1 [Tamoxifen, reference compound]	–	–	9 µg/mL (≈ 24.2 µM)	–	–	–	–	–	Dmax (maximal percentage of cytotoxicity) [3]: 50%
CC(=O)O[C@H]1C[C@@]2(C)[C@@H](CC(=O)[C@H]3[C@@]4(C)CC[C@H](N5CCCC5)[C@@H](C)[C@@H]4CC[C@@]32C)/C1=C(\CCC=C(C)C)C(=O)O [Compound 7]	showed antimicrobial activity	8 µg/mL (≈ 14.1 µM)	> 32 µg/mL	>32 >32 µg/mL	2.6%	>32 >32 µg/mL	2.3%	–	–
CC[C@H](C)[C@H](NC(=O)CN)C(=O)NCC(=O)N[C@@H](C)C(=O)N[C@H](C(=O)N[C@@H](CC(C)C)C(=O)N[C@@H](CCCCN)C(=O)N[C@H](C(=O)N[C@@H](CC(C)C)C(=O)N[C@H](C(=O)N[C@H](C(=O)NCC(=O)N[C@@H](CC(C)C)C(=O)N1CCC[C@H]1C(=O)N[C@@H](C)C(=O)N[C@@H](CC(C)C)C(=O)N[C@H](C(=O)N[C@@H](CO)C(=O)N[C@@H](Cc1c[nH]c2ccccc12)C(=O)N[C@H](C(=O)N[C@@H](CCCCN)C(=O)N[C@@H](CCCNC(=N)N)C(=O)N[C@@H](CCCCN)C(=O)N[C@@H](CCCNC(=N)N)C(=O)N[C@@H](CCC(N)=O)C(=O)N[C@@H](CCC(N)=O)C(N)=O)[C@@H](C)CC)[C@@H](C)CC)[C@@H](C)O)[C@@H](C)O)C(C)C)C(C)C [Melittin, reference compound]	–	–	–	–	–	–	–	–	hemolysis ([5]; human erythrocytes, two replicates per cell, read-out: Dmax (maximal percentage of hemolysis)): 50%
